Assay results as given in PubChem BioAssay AID1963424 (Molecular Pharmacology Branch, DTP, NCI, 2024).
pIC50: −log10 of the molar value. Each block holds one compound with its values, some of them ahead of it.

System: 327498-153-R-J2-PDC complex spheroid growth, % test/control
Assay: Anticancer human tumor 327498-153-R-J2-PDC patient-derived uterine carcinosarcoma cell line growth inhibition [Asc]
Details: for pIC50: curve of first compound; for viability, T/C: stronger effect = lower value
In short: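 Tumor cells were grown as complex spheroids with human endothelial cells (HUVEC) and human mesenchymal stem cells as stroma. Agents were tested alone and in combination, in half-log steps down from the clinical Cmax, or from 10 microM where Cmax was unknown.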
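Also: spheroids exposed to compound for 7 days after 3 days of growth.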
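For viability, T/C in this document: 100% = DMSO vehicle control wells.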

pIC50 (second compound 0.1 µM): 6.83 | pIC50 (second compound 0.316 µM): 6.87 | pIC50 (second compound 1 µM): 6.97 | pIC50 (second compound 3.16 µM): 6.91 | pIC50 (second compound 10 µM): 6.76
SMILES: CCN1C(C(=O)NC23CCC(C(=O)O)(CC2)CC3)C(c2cccc(Cl)c2F)C2(C(=O)Nc3cc(Cl)ccc32)C12CCCCC2 (stereo not given) + Cc1c(S(C)(=O)=O)c(-c2cc(F)cc(N3CCN(c4ccc(NS(=O)(=O)c5ccc(NC(CCN6CCC(C(=O)OCCCP(=O)(O)O)CC6)CSc6ccccc6)c(S(=O)(=O)C(F)(F)F)c5)cc4)CC3)c2)c(-c2ccc(Cl)cc2)n1C(C)C
viability, T/C (second compound 0.1 µM, first compound 0.00949 µM): 92.5% | viability, T/C (second compound 0.1 µM, first compound 0.03 µM): 84.5% | viability, T/C (second compound 0.1 µM, first compound 0.0949 µM): 64.8% | viability, T/C (second compound 0.1 µM, first compound 0.3 µM): 26.6% | viability, T/C (second compound 0.1 µM, first compound 0.949 µM): 6.43% | viability, T/C (second compound 0.1 µM, first compound 3 µM): 2% | viability, T/C (second compound 0.316 µM, first compound 0.00949 µM): 87.4% | viability, T/C (second compound 0.316 µM, first compound 0.03 µM): 89% | viability, T/C (second compound 0.316 µM, first compound 0.0949 µM): 64.4% | viability, T/C (second compound 0.316 µM, first compound 0.3 µM): 17% | viability, T/C (second compound 0.316 µM, first compound 0.949 µM): 8.41% | viability, T/C (second compound 0.316 µM, first compound 3 µM): 2.1% | viability, T/C (second compound 1 µM, first compound 0.00949 µM): 91.4% | viability, T/C (second compound 1 µM, first compound 0.03 µM): 94.5% | viability, T/C (second compound 1 µM, first compound 0.0949 µM): 50.6% | viability, T/C (second compound 1 µM, first compound 0.3 µM): 17.8% | viability, T/C (second compound 1 µM, first compound 0.949 µM): 4.84% | viability, T/C (second compound 1 µM, first compound 3 µM): 1.36% | viability, T/C (second compound 3.16 µM, first compound 0.00949 µM): 78.9% | viability, T/C (second compound 3.16 µM, first compound 0.03 µM): 79% | viability, T/C (second compound 3.16 µM, first compound 0.0949 µM): 56.1% | viability, T/C (second compound 3.16 µM, first compound 0.3 µM): 23.8% | viability, T/C (second compound 3.16 µM, first compound 0.949 µM): 6.76% | viability, T/C (second compound 3.16 µM, first compound 3 µM): 1.6% | viability, T/C (second compound 10 µM, first compound 0.00949 µM): 166% | viability, T/C (second compound 10 µM, first compound 0.03 µM): 162% | viability, T/C (second compound 10 µM, first compound 0.0949 µM): 80.9% | viability, T/C (second compound 10 µM, first compound 0.3 µM): 23.5% | viability, T/C (second compound 10 µM, first compound 0.949 µM): 9.14% | viability, T/C (second compound 10 µM, first compound 3 µM): 1.51%

pIC50 (second compound 0.1 µM): < 6.00 | pIC50 (second compound 0.316 µM): < 6.00 | pIC50 (second compound 1 µM): < 6.00 | pIC50 (second compound 3.16 µM): < 6.00 | pIC50 (second compound 10 µM): < 6.00
SMILES: CNC(C)C(=O)NC1CN(S(=O)(=O)c2cccc(S(=O)(=O)N3CCC4CCC(C(=O)NC(c5ccccc5)c5ccccc5)N4C(=O)C(NC(=O)C(C)NC)C3)c2)CCC2CCC(C(=O)NC(c3ccccc3)c3ccccc3)N2C1=O (stereo not given) + Cc1c(S(C)(=O)=O)c(-c2cc(F)cc(N3CCN(c4ccc(NS(=O)(=O)c5ccc(NC(CCN6CCC(C(=O)OCCCP(=O)(O)O)CC6)CSc6ccccc6)c(S(=O)(=O)C(F)(F)F)c5)cc4)CC3)c2)c(-c2ccc(Cl)cc2)n1C(C)C
viability, T/C (second compound 0.1 µM, first compound 0.00316 µM): 94.1% | viability, T/C (second compound 0.1 µM, first compound 0.01 µM): 91.2% | viability, T/C (second compound 0.1 µM, first compound 0.0316 µM): 98% | viability, T/C (second compound 0.1 µM, first compound 0.1 µM): 92.3% | viability, T/C (second compound 0.1 µM, first compound 0.316 µM): 93.8% | viability, T/C (second compound 0.1 µM, first compound 1 µM): 82.4% | viability, T/C (second compound 0.316 µM, first compound 0.00316 µM): 93.1% | viability, T/C (second compound 0.316 µM, first compound 0.01 µM): 93.3% | viability, T/C (second compound 0.316 µM, first compound 0.0316 µM): 96.6% | viability, T/C (second compound 0.316 µM, first compound 0.1 µM): 87.2% | viability, T/C (second compound 0.316 µM, first compound 0.316 µM): 87.7% | viability, T/C (second compound 0.316 µM, first compound 1 µM): 83.9% | viability, T/C (second compound 1 µM, first compound 0.00316 µM): 100% | viability, T/C (second compound 1 µM, first compound 0.01 µM): 90.6% | viability, T/C (second compound 1 µM, first compound 0.0316 µM): 97% | viability, T/C (second compound 1 µM, first compound 0.1 µM): 80.3% | viability, T/C (second compound 1 µM, first compound 0.316 µM): 82.1% | viability, T/C (second compound 1 µM, first compound 1 µM): 92.2% | viability, T/C (second compound 3.16 µM, first compound 0.00316 µM): 84.4% | viability, T/C (second compound 3.16 µM, first compound 0.01 µM): 90.8% | viability, T/C (second compound 3.16 µM, first compound 0.0316 µM): 88.4% | viability, T/C (second compound 3.16 µM, first compound 0.1 µM): 86% | viability, T/C (second compound 3.16 µM, first compound 0.316 µM): 89.8% | viability, T/C (second compound 3.16 µM, first compound 1 µM): 85% | viability, T/C (second compound 10 µM, first compound 0.00316 µM): 173% | viability, T/C (second compound 10 µM, first compound 0.01 µM): 166% | viability, T/C (second compound 10 µM, first compound 0.0316 µM): 156% | viability, T/C (second compound 10 µM, first compound 0.1 µM): 146% | viability, T/C (second compound 10 µM, first compound 0.316 µM): 153% | viability, T/C (second compound 10 µM, first compound 1 µM): 136%
